# Measured values taken from patent US11779559B2, “Compositions for treating fungal and bacterial biofilms and methods of using the same” (priority 2017, dated 2023).
# Assays:
# [1] = tested on: S. aureus; assay: Disruption biofilm assay, bacterial; type: cell-based, Staphylococcus aureus; settings: Staphylococcus aureus, 24 h; disruption assay; S. aureus; 1% amino acid (unless specifically noted); p≤0.001; read-out: Reduce B Biofilm
# Experimental: (§1) Two types of biofilm assays were performed: a sustained inhibition assay and a disruption assay. The sustained inhibition assay assesses the compound's ability to prevent biofilm development throughout all stages of biofilm formation, while the disruption assay assesses the compound's ability to break up an existing mature biofilm. These assays are described in detail in the following article: Lohse, M. B., Gulati, M., Valle Arevalo, A., Fishburn, A., Johnson, A. D., and Nobile, C. […] Antimicrobial Agents and Chemotherapy 61: e02749-16.
# (§2) All bacterial biofilm solutions were prepared in Trypic Soy Broth (TSB), supplemented with 1% glucose (henceforth referred to as TSB-G). All subsequent procedures were performed in a manner that maintained sterility. A solution of each amino acid to be tested was prepared in weight to volume concentrations ranging from 0.1-5.0%. Amino acids were also tested in combinations. Compound solutions were homogenized with gentle agitation in the dark (4° C., 24 hours) before use.
# (§3) Bacterial strains were streaked on Blood Agar plates (5% sheep blood in Tryptic Soy Agar) and incubated at 37° C. for 24 hours. A single colony from each strain to be tested was inoculated in a TSB broth and grown for 12 hours, at 37° C. with shaking (225 rpm). For the bacterial biofilm inhibition assays, 1 μL of saturated overnight cell culture was added to either 80 μL of TSB-G, or TSB-G supplemented with the amino acid compound solution to be tested, in a 384-well plate. The cells were allowed to adhere to the plate for 60 minutes at 37° C. without shaking. The media was carefully aspirated and 80 μL of TSB-G, or TSB-G supplemented with the amino acid compound solution was added to the plate. The plate was further incubated for 24 hours at 37° C. without shaking. Media was carefully aspirated and the biofilm was measured by optical density at 600 nm. Eight or twelve replicates were performed for each tested condition and the reported values are normalized to the control (TSB-G media only). For the bacterial biofilm disruption assays, 80 μL of TSB-G was added to the plate, along with 1 μL of overnight cell culture. The cells were allowed to adhere to the plate for 60 minutes at 37° C. with no shaking. The media was carefully aspirated and 80 μL of TSB-G was added to the plate. The plate was further incubated for 24 hours at 37° C. with no shaking. Media was carefully aspirated from the mature biofilm and 80 μL of TSB-G, or TSB-G supplemented with the amino acid to be tested, was gently added to the plate. The plate was further incubated for 24 hours at 37° C. without shaking. Media was aspirated and the biofilm was measured by optical density at 600 nm. Twelve replicates were performed for each tested condition and the reported values are normalized to the control (TSB-G media only).
# [2] = tested on: C. albicans; assay: Disruption biofilm assay, fungal; type: cell-based, Candida albicans; settings: disruption assay; C. albicans; 1% amino acid (unless specifically noted); p≤0.001
# Experimental: as §1, §2
# Fungal strains were streaked on Yeast Peptone Dextrose (YPD) agar plates and incubated at 30° C. for 48 hours. A single colony from each strain to be tested was inoculated into YPD broth and grown for 12 hours, at 30° C., shaking at 225 rpm. […] The cells were allowed to adhere to the plate for 90 minutes at 37° C. with shaking (350 rpm). […] The plate was further incubated for 24 hours at 37° C. with shaking (350 rpm). Media was carefully aspirated and the biofilm was measured by optical density at 600 nm. […] The cells were allowed to adhere to the plate for 90 minutes at 37° C. with shaking (350 rpm). […] The plate was further incubated for 24 hours at 37° C. with shaking (350 rpm). […] The plate was further incubated for 24 hours at 37° C. with shaking (350 rpm). Media was carefully aspirated and the biofilm was measured by optical density at 600 nm.
# [3] = tested on: S. aureus; assay: Sustained inhibition biofilm assay, bacterial; type: cell-based, Staphylococcus aureus; settings: sustained inhibition assay; S. aureus; 1% amino acid (unless specifically noted); p≤0.001
# Experimental: as §1, §2, §3
smiles,measurement,setting,value
"N[C@@H](CC(=O)O)C(=O)O [Aspartic Acid, L-aspartic acid]",inhibition at 1 %,[1],> 30%
same,Reduce F Biofilm,[2],●● (two dots [ie. ••] signifies major effect (greater than about 30% change))
same,Reduce B Biofilm,[3],●● (two dots [ie. ••] signifies major effect (greater than about 30% change))
